ChEMBL document CHEMBL1144951, “Synthesis of N-alkylated derivatives of imidazole as antibacterial agents” (2003)
In brackets after ≈: the same amount, converted by molar mass.

How the values were obtained:
Type in all cases: functional
Escherichia coli [1] = experiment: Minimum inhibitory concentration (MIC) against Escherichia coli
Escherichia coli [2] = experiment: Minimum bacterial concentration (MBC) against Escherichia coli
Pseudomonas aeruginosa [3] = experiment: Minimum inhibitory concentration (MIC) against Pseudomonas aeruginosa
Pseudomonas aeruginosa [4] = experiment: Minimum bacterial concentration (MBC) against Pseudomonas aeruginosa
Staphylococcus aureus [5] = experiment: Minimum bacterial concentration (MBC) against Staphylococcus aureus
Staphylococcus aureus [6] = experiment: Minimum inhibitory concentration (MIC) against Staphylococcus aureus

Compound | MIC (Escherichia coli [1]) | MBC (Escherichia coli [2]) | MIC (Pseudomonas aeruginosa [3]) | MBC (Pseudomonas aeruginosa [4]) | MBC (Staphylococcus aureus [5]) | MIC (Staphylococcus aureus [6])
CCCCCCCCCCCCCCn1ccnc1 | 21100 mg/L (≈ 79900 µM) | 22400 mg/L (≈ 84900 µM) | 23800 mg/L (≈ 89800 µM) | 25100 mg/L (≈ 94800 µM) | 21100 mg/L (≈ 79900 µM) | 19800 mg/L (≈ 74900 µM)
CCCCCCCCCCCCn1ccnc1C | 17500 mg/L (≈ 69900 µM) | 18800 mg/L (≈ 74900 µM) |  |  | 18800 mg/L (≈ 74900 µM) | 17500 mg/L (≈ 69900 µM)
CCCCCCCCn1cc([N+](=O)[O-])nc1C | 31 mg/L (≈ 130 µM) | 60 mg/L (≈ 251 µM) |  |  | 48 mg/L (≈ 201 µM) | 24 mg/L (≈ 100 µM)
CCCCCn1ccnc1 | 97 mg/L (≈ 702 µM) | 193 mg/L (≈ 1400 µM) | 138 mg/L (≈ 998 µM) | 276 mg/L (≈ 2000 µM) | 138 mg/L (≈ 998 µM) | 69 mg/L (≈ 499 µM)
GENTAMICIN | 64 mg/L | 128 mg/L | 8 mg/L | 12 mg/L | 4 mg/L | 2 mg/L
CCCCCCCCCCCCn1ccnc1 | 14200 mg/L (≈ 59900 µM) | 15300 mg/L (≈ 64900 µM) | 16500 mg/L (≈ 69900 µM) | 17700 mg/L (≈ 74900 µM) | 15300 mg/L (≈ 64900 µM) | 14200 mg/L (≈ 59900 µM)
CCCCCCCn1ccnc1 | 50 mg/L (≈ 301 µM) | 100 mg/L (≈ 601 µM) | 83 mg/L (≈ 499 µM) | 166 mg/L (≈ 998 µM) | 66 mg/L (≈ 397 µM) | 33 mg/L (≈ 198 µM)
CCCCCCCCCCCn1ccnc1 | 1110 mg/L (≈ 4990 µM) | 2220 mg/L (≈ 9980 µM) | 2220 mg/L (≈ 9980 µM) | 4440 mg/L (≈ 20000 µM) | 2220 mg/L (≈ 9980 µM) | 1110 mg/L (≈ 4990 µM)
CCCn1ccnc1 | 110 mg/L (≈ 999 µM) | 220 mg/L (≈ 2000 µM) | 550 mg/L (≈ 4990 µM) | 1100 mg/L (≈ 9990 µM) | 198 mg/L (≈ 1800 µM) | 44 mg/L (≈ 399 µM)
CCCCn1ccnc1 | 99 mg/L (≈ 797 µM) | 198 mg/L (≈ 1590 µM) | 248 mg/L (≈ 2000 µM) | 496 mg/L (≈ 3990 µM) | 174 mg/L (≈ 1400 µM) | 87 mg/L (≈ 701 µM)
CCCCn1cc([N+](=O)[O-])nc1C | 18 mg/L (≈ 98.2 µM) | 37 mg/L (≈ 202 µM) |  |  | 33 mg/L (≈ 180 µM) | 17 mg/L (≈ 92.8 µM)
CCCCCCCCCCn1ccnc1 | 208 mg/L (≈ 998 µM) | 416 mg/L (≈ 2000 µM) | 416 mg/L (≈ 2000 µM) | 832 mg/L (≈ 3990 µM) | 416 mg/L (≈ 2000 µM) | 208 mg/L (≈ 998 µM)
CCn1ccnc1 | 480 mg/L (≈ 4990 µM) | 960 mg/L (≈ 9990 µM) | 960 mg/L (≈ 9990 µM) | 1920 mg/L (≈ 20000 µM) | 960 mg/L (≈ 9990 µM) | 480 mg/L (≈ 4990 µM)
CCCCCCn1ccnc1 | 91 mg/L (≈ 598 µM) | 182 mg/L (≈ 1200 µM) | 122 mg/L (≈ 801 µM) | 243 mg/L (≈ 1600 µM) | 91 mg/L (≈ 598 µM) | 46 mg/L (≈ 302 µM)
CCCCCCCCn1ccnc1 | 45 mg/L (≈ 250 µM) | 90 mg/L (≈ 499 µM) | 54 mg/L (≈ 300 µM) | 108 mg/L (≈ 599 µM) | 45 mg/L (≈ 250 µM) | 27 mg/L (≈ 150 µM)
CCCCCCn1ccnc1C | 25 mg/L (≈ 150 µM) | 50 mg/L (≈ 301 µM) |  |  | 50 mg/L (≈ 301 µM) | 25 mg/L (≈ 150 µM)
CCCCCCCCCCCCCn1ccnc1 | 18800 mg/L (≈ 74900 µM) | 20000 mg/L (≈ 79900 µM) | 20000 mg/L (≈ 79900 µM) | 21200 mg/L (≈ 84900 µM) | 18800 mg/L (≈ 74900 µM) | 17500 mg/L (≈ 69900 µM)
CCCCCCCCCn1ccnc1 | 19 mg/L (≈ 97.8 µM) | 39 mg/L (≈ 201 µM) | 39 mg/L (≈ 201 µM) | 78 mg/L (≈ 401 µM) | 19 mg/L (≈ 97.8 µM) | 10 mg/L (≈ 51.5 µM)
